Patent US11723886B2, “Targeting ocular diseases with novel APE1/Ref-1 inhibitors” (Indiana University Research and Technology Corporation, priority 2018, dated 2023)
pIC50: −log10 of the molar value.

Assays:
HRECs [1] = assay: TUNEL apoptosis assay in HRECs; assay type: cell-based, human; details: anti-proliferative doses
Description: (§1) EdU incorporation, Ki-67 Staining and TUNEL. These assays were carried out as described previously (Basavarajappa et al., PLoS One 9:e95694 (2014); Basavarajappa et al., EMBO Mol Med 9:786-801 (2017)) with the exception of using chamber slides, not coverslips. Briefly, cells (30,000 per well) were seeded on 8-well chamber slides coated with attachment factors and allowed to attach overnight. Cells were treated with the indicated compound concentrations for 17 hours (overnight). To assay proliferation, cells were incubated with EdU in complete media for 8 hours at 37° C. Cells were then fixed in 4% paraformaldehyde for 20 minutes and permeabilized using 0.25% Triton X-100 prepared in PBS. Cells were incubated with a rabbit-specific monoclonal antibody against Ki-67 (D3B5) (#9129; Cell Signaling, Danvers, Mass.) (1:400) overnight at 4° C. Secondary antibody was Alexa Fluor goat anti-rabbit 488 (A11034; Invitrogen, Carlsbad, Calif.) with DAPI counter-stain for nuclear staining. Proliferating cells that incorporated EdU were detected using the Click-iT EdU Imaging kit (Invitrogen, Carlsbad, Calif.). […] The cells were imaged using a Zeiss AxioImager D2 microscope or an LSM 700 confocal microscope and the percentage of positive cells was counted on three low-power (for TUNEL) or high-power (for Ki-67 and EdU) fields per well using ImageJ software.

Ref-1 = Ref-1 (Homo sapiens, UniProt P27695); assay: Electrophoretic mobility shift assay (redox EMSA), Ref-1-induced AP-1 DNA binding; assay type: biochemical; details: 30 min pre-incubation with purified Ref-1, read-out: IC50 for redox EMSA inhibition
Description: Electrophoretic mobility shift assays (EMSA). These assays were performed as previously described (Luo et al., Antioxid Redox Signal 10:18531867 (2008); Kelley et al., Antioxid Redox Signal 14:1387-1401 (2011); Su et al., Biochemistry 50:82-92 (2011); Luo et al., Biochemistry 51:695-705 (2012); Zhang et al., Biochemistry 52:2955-2966 (2013)). […] The EMSA assay was performed using the AP-1 target DNA sequence and AP-1 protein.

[2] = tested on: laser-induced choroidal neovascularization
HRECs [3] = assay: Scratch wound cell migration assay, HRECs; assay type: cell-based, human
Description: (§2) In vitro cell migration assay. Endothelial cell migration was monitored as described before (Basavarajappa et al., PLoS One 9:e95694 (2014); Basavarajappa et al., EMBO Mol Med 9:786-801 (2017)). Briefly, HRECs and Rf/6a were grown until confluency in 12-well plates. Using a sterile 10-μL micropipette tip, a scratch wound was made across the center of each well and fresh complete media containing DMSO or different concentrations of APX2009 or APX2014 compounds were added to the wells (DMSO final concentration=1%). Wells were imaged via digital brightfield microscopy at different time points, and the number of migrated cells into the scratched area was manually counted.

Rf/6a cells = assay: Scratch wound cell migration assay, Rf/6a; assay type: cell-based, macaque
Description: as §2

HRECs [4] = assay: EdU incorporation and Ki-67 staining in HRECs; assay type: cell-based, human
Description: as §1

HRECs [5] = assay: Propidium iodide cell cycle analysis in HRECs; assay type: cell-based, human; details: high doses, 24 hours
Description: Cell cycle analysis. HRECs (2×10^6) were grown in EGM-2 medium. Cells were serum starved in EBM-2 medium overnight, then treated with the indicated concentrations of APX2009 or APX2014 along with DMSO control for 24 hours in complete medium. Cells were washed twice in ice-cold PBS followed by fixation in 66% ethanol solution overnight at 4° C. Fixed cells were again washed twice in ice-cold PBS and the pellets were resuspended in propidium iodide staining solution for 30 minutes at 37° C. (20 μg/mL propidium iodide prepared in 1×PBS containing 0.1% Triton X-100 and 100 μg/mL RNase A). After incubation cells were analyzed using flow cytometry (FACSCalibur, BD Biosciences, San Jose, Calif.). Pulse shape analysis was used to exclude doublets and debris. The single cell population was then assessed by the FL2 area histogram plot using ModFit software (v. 5.0) and cell cycle profiles were generated.

[6] = tested on: murine choroidal explants; assay: Ex vivo choroidal sprouting assay; assay type: cell-based, mouse; details: for reduction of choroidal sprouting compared to control: 48 hours
Source text: Animals. All animal experiments were approved by the Indiana University School of Medicine Institutional Animal Care and Use Committee and followed the guidelines of the Association for Research in Vision and Ophthalmology Statement for the Use of Animals in Ophthalmic and Visual Research. Wild-type female C57BL/6 mice, 6-8 weeks of age, were purchased from Envigo (Indianapolis, Ind.; for choroidal sprouting experiments) or Jackson Laboratory (Bar Harbor, Me.; for L-CNV) and housed under standard conditions (Wenzel et al., Mol Vis 21:515-522 (2015)). Mice were anesthetized for all procedures by intraperitoneal injections of 90 mg/kg ketamine hydrochloride and 5 mg/kg xylazine, with intraperitoneal atipamezole reversal (1 mg/kg). Treatments were randomly assigned by cage.
Choroidal sprouting assay. Ex vivo Choroidal sprouting was assessed as described previously (Sulaiman et al., Sci Rep 6:25509 (2016); Basavarajappa et al., EMBO Mol Med 9:786-801 (2017)). Briefly, choroid-sclera was dissected from 7 to 8 week old mouse eyes and pieces were embedded in Matrigel (growth factor reduced) and grown in EGM-2 medium containing antibiotics for 72 hours to allow sprouting to initiate. The indicated concentrations of APX2009 and APX2014 compounds (in DMSO, final DMSO concentration 0.5 and 0.2%, respectively) were added and growth allowed to proceed for 48 hours Images were taken and growth was quantified by measuring the distance from the edge of the choroidal piece to the growth front in four directions per sample using ImageJ software.

Chain of Ref-1 (P27695 whole entry): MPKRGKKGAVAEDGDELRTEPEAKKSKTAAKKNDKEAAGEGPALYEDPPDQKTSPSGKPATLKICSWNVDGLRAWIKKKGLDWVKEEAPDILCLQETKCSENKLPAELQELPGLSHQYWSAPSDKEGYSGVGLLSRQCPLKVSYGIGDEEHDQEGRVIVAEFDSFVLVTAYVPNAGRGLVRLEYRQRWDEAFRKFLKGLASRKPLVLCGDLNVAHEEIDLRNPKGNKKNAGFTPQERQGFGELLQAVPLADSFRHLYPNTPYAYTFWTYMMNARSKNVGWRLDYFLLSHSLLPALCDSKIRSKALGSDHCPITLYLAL

Row | Compound | apoptosis by TUNEL (HRECs [1]) | pIC50 (Ref-1) | fluorescein leakage in lesions (fluorescein angiography) ([2]; 25 mg/kg i.p., Day 14) | intraocular or systemic toxicity in vivo ([2]; i.p. dosing in L-CNV mice) | effect on L-CNV ([2]; i.p., 12.5 mg/kg twice daily for two weeks) | L-CNV on systemic administration (summary statement) [2] | cell migration in scratch wound assay, HRECs (HRECs [3]) | cell migration in scratch wound assay, Rf/6a (Rf/6a cells) | cells going through S phase (Ki-67 staining, EdU incorporation) (HRECs [4]) | cell cycle phase distribution (HRECs [5]) | reduction of choroidal sprouting compared to control ([6]; at 10 μM) [%] | concentrations inhibiting choroidal sprouting ex vivo [6] | reduction of choroidal sprouting compared to control ([6]; at 1 μM (highest concentration tested)) [%]
1 | CCC/C(=C\C1=C(OC)C(=O)c2ccccc2C1=O)C(=O)N(CC)CC [APX2009, (2E)-2-[(3-methoxy-1,4-dioxo-1,4-dihydronaphthalen-2-yl)methylidene]-N,N-diethylpentanamide] | neither compound induced apoptosis | 6.35 | qualitatively less fluorescein leakage | not observed obvious intraocular or systemic toxicity | did not reduce L-CNV | can attenuate L-CNV | significantly inhibited | significantly inhibited | reduced the number of cells going through S phase | modest increase in cells in G0/G1 phase | ~70 | low micromolar | 
2 | CCC/C(=C\C1=C(OC)C(=O)c2ccccc2C1=O)C(=O)NOC [APX2014, (2E)-2-[(3-methoxy-1,4-dioxo-1,4-dihydronapthalen-2-yl)methylidene]-N-methoxypentanamide] | neither compound induced apoptosis | 6.70 |  |  |  | can attenuate L-CNV | significantly inhibited | significantly inhibited | reduced the number of cells going through S phase | modest increase in cells in G0/G1 phase |  | high nanomolar | ~60
